Assays:
Danio rerio embryo [1] = experiment: LEL larval photomotor response dark phase 120 hpf
Description: (§1)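 ZBEscreen: dechorionated Tropical 5D zebrafish embryos were exposed from 4 hpf in 96-well plates (1% DMSO, 28 °C). All compounds were first tested at 100 µM; hits were retested at 0.005-100 µM. Morphology and mortality were scored at 120 hpf and fitted as BMC10 (3-parameter log-logistic, extra risk). The embryonic photomotor response at 24 hpf and the larval photomotor response at 120 hpf are given as lowest effect levels (K-S test, p<0.01). NA = not significant up to 100 µM; NT = not tested.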

Danio rerio embryo [2] = experiment: BMC10 mortality 24-120 hpf; higher = less toxic
Description: as §1

HL-60 = experiment: Cell Health Index (toxicity pseudo-probability over dose series) (index 0-1); higher = more cytotoxic / cell stress;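 further: HL-60 cells exposed 4 h at 37 °C to ten threefold dilutions spanning 5 nM to 100 µM, multiparametric flow cytometry features scored by machine-learning classification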
Danio rerio embryo [3] = experiment: LEL embryonic photomotor response 24 hpf
Description: as §1

Danio rerio embryo [4] = experiment: BMC10 any morphological effect or mortality at 120 hpf; higher = less toxic

Row | SMILES | LEL larval photomotor response dark phase 120 hpf (Danio rerio embryo [1]) [µM] | BMC10 mortality 24-120 hpf (Danio rerio embryo [2]) [µM] | Cell Health Index (HL-60) | LEL embryonic photomotor response 24 hpf (Danio rerio embryo [3]) [µM] | BMC10 any morphological effect or mortality (Danio rerio embryo [4]) [µM]
1 | CC(=O)c1c(O)cc(O)c(C(C)=O)c1O [2,4-Diacetylphloroglucinol] | > 100 | 3.32 | 0.669 | 3.7 | 1.45
2 | CNc1ccc([N+](=O)[O-])c(Nc2ccc3[nH]ncc3c2)n1 [KRIBB11] | 1.23 | 0.805 | 0.372 | 11.1 | 3.27
3 | S=C(N(C1=CC=CC=C1)C(/C2=C\C3=CC=C(C4=CC=CC=C4[N+]([O-])=O)O3)=O)N(C5=CC=CC=C5)C2=O [UCF 101] | > 100 | 4.93 | 0.876 | > 100 | 3.23
4 | C[C@H]1CCC/C=C/[C@@H]2C[C@H](O)C[C@H]2[C@H](O)/C=C/C(=O)O1 [Brefeldin A] | > 100 | 3.95 | 0.226 | 11.1 | 1.09
5 | COc1c(O)cc2oc(-c3ccccc3)cc(=O)c2c1O [Oroxylin A] | > 100 | 64.9 | 0.234 | > 100 | 27.2
6 | C=CCc1ccc(O)c(-c2ccc(O)c(CC=C)c2)c1 [Honokiol] | > 100 | 9.2 | 0.542 | 3.7 | 5.7
7 | CCC(C)n1ncn(-c2ccc(N3CCN(c4ccc(OC[C@H]5CO[C@](Cn6cncn6)(c6ccc(Cl)cc6Cl)O5)cc4)CC3)cc2)c1=O (stereo partly specified) [Itraconazole] | 0.41 | 0.276 | 0.382 | 3.7 | 0.113
8 | O=C1c2cccc(O)c2C(=O)c2c(O)cc(CO)cc21 [Aloe-emodin] | > 100 | 17.1 | 0.198 | 3.7 | 9.08
9 | COC(=O)C1=C(C)N=C(c2ncc(F)cc2F)NC1c1ccc(F)cc1Cl (racemic) [(±)-BAY 41-4109] | > 100 | 12.6 | 0.592 | 11.1 | 8.25
10 | CN1CCN(CCCN2c3ccccc3Sc3ccc(C(F)(F)F)cc32)CC1.Cl.Cl [Trifluoperazine] | > 100 | 4.13 | 0.898 | 11.1 | 3.55
11 | CC1(C)[C@@H](O)CC[C@@]2(C)[C@@]1([H])[C@@H](O)C[C@]3(C)[C@]2([H])C[C@@H](O)[C@@]4([H])[C@@]3(C)CC[C@]4([H])[C@@](C)(O)CC/C=C(C)/C [20(S)-Protopanaxatriol] | > 100 | 25.7 | 0.803 | 33.3 | 16.2
12 | CC1(C)C=Cc2c(ccc3c2OC[C@@H](c2ccc(O)cc2O)C3)O1 [Glabridin] | > 100 | 9.73 | 0.58 | 11.1 | 3.57
13 | O[C@H]1[C@@]2([H])[C@](CC[C@]2([H])[C@](O)(C)CC/C=C(C)/C)(C)[C@]3(C)CC[C@]4([H])[C@@](CC[C@H](O[C@]5([H])O[C@H](CO)[C@@H](O)[C@H](O)[C@H]5O)C4(C)C)(C)[C@@]3([H])C1 [20(S)-Ginsenoside Rh2] | > 100 | 9.35 | 0.787 | 11.1 | > 100
14 | COc1cc2c(c(OC)c1OC)-c1c(cc(OC)c(OC)c1OC)C[C@H](C)[C@H](C)C2 [Schisandrin A] | > 100 | 3.4 | 0.661 | 0.015 | 3.78
15 | Cl.Clc1ccc(Cn2c(CN3CCCC3)nc3ccccc32)cc1 [Clemizole] | > 100 | 10.1 | 0.453 | 3.7 | 4.04
16 | COc1ccc(CC(C)C(C)Cc2ccc(OC)c(OC)c2)cc1OC (stereo unspecified) [Terameprocol] | > 100 | 24 | 0.506 | 3.7 | 3.12
17 | C[C@@H]1CCO[C@H]2Cn3cc(C(=O)NCc4ccc(F)cc4F)c(=O)c(O)c3C(=O)N12 [Dolutegravir] | > 100 |  | 0.167 | > 100 | > 100
18 | C/C=C(/C)C(=O)O[C@H]1c2cc(OC)c(OC)c(OC)c2-c2c(cc3c(c2OC)OCO3)C[C@H](C)[C@]1(C)O [Schisantherin B] | > 100 |  | 0.365 | 100 | 65.9
19 | Cc1ccc(NC(=O)C(=O)NC2CC(C)(C)NC(C)(C)C2)cc1 [YYA-021] | 33.3 |  | 0.184 | 100 | > 100
20 | OC1=CC(OC)=C(C(CC(C2=CC=C(O)C=C2)O3)=O)C3=C1C/C=C(C)/C (stereo unspecified) [Isoxanthohumol] | > 100 |  | 0.183 | > 100 | > 100

Row | SMILES | LEL larval photomotor response dark phase 120 hpf (Danio rerio embryo [1]) [µM] | BMC10 mortality 24-120 hpf (Danio rerio embryo [2]) [µM] | Cell Health Index (HL-60) | LEL embryonic photomotor response 24 hpf (Danio rerio embryo [3]) [µM] | BMC10 any morphological effect or mortality (Danio rerio embryo [4]) [µM]
21 | CCOC(=O)c1ccc(OC(=O)CCCCCNC(=N)N)cc1.CS(=O)(=O)O [Gabexate] | > 100 |  | 0.22 | > 100 | > 100
22 | CC(C)[C@H](NC(=O)[C@H](CCCNC(=N)N)NC(=O)NC(Cc1ccccc1)C(=O)O)C(=O)NC(C=O)CCCNC(=N)N.Cl.Cl (stereo partly specified) [Antipain] | > 100 |  | 0.154 | > 100 | > 100
23 | CC(C)(C)C1=C(O)C(C(C)(C)C)=CC(/C=C(C#N)\C#N)=C1 [Malonoben] | > 100 |  | 0.861 | 0.14 | > 100
24 | COc1cc(C[C@H]2C(=O)OC[C@@H]2Cc2ccc(OC)c(OC)c2)ccc1O [Arctigenin] | 3.7 |  | 0.617 | > 100 | > 100
25 | COc1c2c(cc3c1-c1c(cc4c(c1OC)OCO4)CC(C)C(C)C3)OCO2 (stereo unspecified) [Schisandrin C] | > 100 |  | 0.61 | 11.1 | 2.06
26 | Cc1ccc(C2Nc3ccccc3C(=O)N2c2ccccc2)s1 (stereo unspecified) [Retro-2] | > 100 |  | 0.241 | 0.14 | 0.795
27 | O=C(NCc1ccco1)c1ccc2c(c1)N(Cc1c(F)cccc1Cl)C(=O)CS2 [G10] | > 100 |  | 0.311 | 11.1 | > 100
28 | C=C[C@H]1C[N@@]2CC[C@H]1C[C@@H]2[C@@H](O)c1ccnc2ccc(OC)cc12 [Quinidine] | > 100 |  | 0.197 | > 100 | > 100
29 | COc1cc(-c2oc3cc(O)cc(O)c3c(=O)c2O[C@@H]2O[C@H](CO[C@@H]3O[C@@H](C)[C@H](O)[C@@H](O)[C@H]3O)[C@@H](O)[C@H](O)[C@H]2O)ccc1O [Narcissoside] | > 100 |  | 0.248 | > 100 | > 100
30 | Cc1cc(C#N)cc(C)c1Oc1nc(Nc2ccc(C#N)cc2)nc(N)c1Br [Etravirine] | > 100 |  | 0.898 | > 100 | > 100
31 | COc1ccc(-c2coc3cc(O)ccc3c2=O)cc1 [Formononetin] | > 100 |  | 0.288 | 100 | 23
32 | O.O=c1c(O)c(-c2ccc(O)c(O)c2)oc2cc(O)cc(O)c12 [Quercetin] | > 100 |  | 0.461 | > 100 | > 100
33 | CC(C)(Sc1cc(C(C)(C)C)c(O)c(C(C)(C)C)c1)Sc1cc(C(C)(C)C)c(O)c(C(C)(C)C)c1 [Probucol] | > 100 |  | 0.134 | 0.005 | > 100
34 | C[C@@H]1CC[C@H]2[C@@H](C)C(=O)O[C@@H]3O[C@@]4(C)CC[C@@H]1[C@]32OO4 [Artemisinin] | 3.7 |  | 0.169 | 33.3 | 39.4
35 | O=C(O[C@@H]1Cc2c(O)cc(O)cc2O[C@H]1c1cc(O)c(O)c(O)c1)c1cc(O)c(O)c(O)c1 [(-)-Gallocatechin gallate] | > 100 |  | 0.859 | > 100 | > 100
36 | CC(C)c1nc(CN(C)C(=O)N[C@@H](CCN2CCOCC2)C(=O)N[C@H](CC[C@H](Cc2ccccc2)NC(=O)OCc2cncs2)Cc2ccccc2)cs1 [Cobicistat] | > 100 |  | 0.831 | > 100 | > 100
37 | COc1cc(NC(C)CCCN)c2ncccc2c1.O=P(O)(O)O.O=P(O)(O)O (stereo unspecified) [Primaquine] | > 100 |  | 0.352 | > 100 | > 100
38 | CS(=O)(=O)O.CS(=O)(=O)O.N=C(N)Nc1ccc(C(=O)Oc2ccc3cc(C(=N)N)ccc3c2)cc1 [Nafamostat] | > 100 |  | 0.422 | > 100 | > 100
39 | C=C[C@@H]1C[C@]1(NC(=O)[C@@H]1C[C@H](Oc2ncc(OC)c3ccc(Cl)cc23)CN1C(=O)[C@@H](NC(=O)OC(C)(C)C)C(C)(C)C)C(=O)NS(=O)(=O)C1CC1 [Asunaprevir] | 3.7 |  | 0.536 | 11.1 | > 100
40 | O=C1CCC[C@@H]2[C@H]3CCCN4CCC[C@@H](CN12)[C@@H]34 [Matrine] | > 100 |  | 0.14 | > 100 | > 100

From the supplement of paper PMC11821682
